Data from PMC10590383, “Repurposing conformational changes in ANL superfamily enzymes to rapidly generate biosensors for organic and amino acids” (Nature Communications, 2023).

Assay: pH stability of […]-Phe3 (dose–response and fluorescence intensity at pH 6.5, 7.5, 8.5)
Type: biochemical
Conditions: for fluorescence response of GECFINDER, AVE of 3 repeats: Supplementary Fig. 3 e; for fluorescence intensity, AVE of 3 repeats: Supplementary Fig. 3 d, 100 μM Phe
Text: As cpEGFP is sensitive to pH, we conducted a dose-response curve and fluorescence intensity analysis of […]-Phe3 at varying pH levels. […] In addition, we expanded the range of ligand-binding domains (LBDs) applicable to […] and attempted optimization of insertion sites for cpEGFP with limited success. Please refer to Supplemental Note 1 for detailed information.
The study conducted dose–response curve, substrate specificity, and fluorescent spectrum analyses in 100-mM Tris buffer (pH = 7.5), while pH stability experiments were performed in 100-mM Tris buffer at three different pH values (6.5, 7.5, and 8.5) at room temperature. […] protein at a concentration of 0.75 μM, various small molecule concentrations, 1 mM ATP, and 2.5 mM MgCl2 were used in the experiments. Fluorescent signals were detected using a Microplate Reader (Synergy H4, Bio Tek) at an excitation/emission wavelength of 460 nm/510 nm or 480 nm/510 nm. The dose-response curve was determined immediately after the addition of the analyte. The total duration of the measurement was 15 min, with readings taken at one-minute intervals. The dose-response curve was plotted using the fluorescence values obtained after achieving stability in the fluorescence signal. The dose-response curves were fitted using the logistic model LOGISTIC5 available in Origin 2021, which could provide a more adequate fit to asymmetric dose-response data[62],[63]. Excitation spectra were scanned from 300 to 540 nm with a step size of 5 nm, and the emission wavelength was set to 560 nm. Emission spectra were scanned from 470 to 700 nm with a step size of 5 nm, and the excitation wavelength was set to 450 nm. The thermal stability of […] was analyzed using the UNcle multifunctional protein stability analysis system. Measurements were performed in 20 mM MOPS buffer with 2 mM DTT at a sample concentration of 1 mg/mL. Absolute fluorescence quantum yields were measured using an absolute photoluminescence quantum yield spectrometer (FS5, Edinburgh). […]
β-P he. […]
All data shown are mean s ± S.D . (n =3 biologically inde pendent samples). Source
data are provided as a Source Data file.
(also on this page, place not known: 10210-210-3 Normalized Normalized […]-Leu3 10-4 10⁵ 2.5 Normalized ΔF/F 0 AlaAr As p As […]Pr SerThr ValTrpTyr Ph R-β-Ph β-Ph e 2.5Normalized ΔF/F 0 Substrate 100μM 100μM 100μM Fluorescence ...K ...N GrsA-PheA PpsA-GluA -QSVF- 10⁰ 10⁵ […]-Ile(VF-QS) Normalized ΔF/F 0 (μM) 0mM 0.75mM His 12×10³Intensity f g Substrate specificity engineering insertion optimization […]. Dose–response purified […]-Leu2 increasing concentrations normalized ΔF/F0 […]-SβF acids R/S- β-Phe. concentrations substrates Fluorescence purified […]-Phe3 different control fluorescence substrate added. response purified […]-Phe3 increasing concentrations different junction domain Dose–response curve purified […]-Ile (VF-QS) increasing concentrations Normalized ΔF/F0 increased after excitation).h, Difference fluorescence intensity […]-His (VF-QS) presence histidine compared control means S.D. (n=3 independent) […]

## N[C@@H](Cc1ccccc1)C(=O)O [Phe]
pH6.5, Phe 0.001 μM
  fluorescence response of GECFINDER, AVE of 3 repeats: -5.5222e-17
pH6.5, Phe 0.005 μM
  fluorescence response of GECFINDER, AVE of 3 repeats: 0.01941
pH6.5, Phe 0.01 μM
  fluorescence response of GECFINDER, AVE of 3 repeats: 0.04517
pH6.5, Phe 0.05 μM
  fluorescence response of GECFINDER, AVE of 3 repeats: 0.1259
pH6.5, Phe 0.1 μM
  fluorescence response of GECFINDER, AVE of 3 repeats: 0.2201
pH6.5, Phe 0.5 μM
  fluorescence response of GECFINDER, AVE of 3 repeats: 0.7727
pH6.5, Phe 1 μM
  fluorescence response of GECFINDER, AVE of 3 repeats: 1.198
pH6.5, Phe 5 μM
  fluorescence response of GECFINDER, AVE of 3 repeats: 2.235
pH6.5, Phe 10 μM
  fluorescence response of GECFINDER, AVE of 3 repeats: 2.5727
pH6.5, Phe 25 μM
  fluorescence response of GECFINDER, AVE of 3 repeats: 2.94
pH6.5, Phe 50 μM
  fluorescence response of GECFINDER, AVE of 3 repeats: 3.093
pH6.5, Phe 100 μM
  fluorescence response of GECFINDER, AVE of 3 repeats: 3.166
pH7.5, Phe 0.001 μM
  fluorescence response of GECFINDER, AVE of 3 repeats: 0
pH7.5, Phe 0.005 μM
  fluorescence response of GECFINDER, AVE of 3 repeats: 0.04668
pH7.5, Phe 0.01 μM
  fluorescence response of GECFINDER, AVE of 3 repeats: 0.05356
pH7.5, Phe 0.05 μM
  fluorescence response of GECFINDER, AVE of 3 repeats: 0.1413
pH7.5, Phe 0.1 μM
  fluorescence response of GECFINDER, AVE of 3 repeats: 0.2634
pH7.5, Phe 0.5 μM
  fluorescence response of GECFINDER, AVE of 3 repeats: 0.9215
pH7.5, Phe 1 μM
  fluorescence response of GECFINDER, AVE of 3 repeats: 1.384
pH7.5, Phe 5 μM
  fluorescence response of GECFINDER, AVE of 3 repeats: 2.412
pH7.5, Phe 10 μM
  fluorescence response of GECFINDER, AVE of 3 repeats: 2.788
pH7.5, Phe 25 μM
  fluorescence response of GECFINDER, AVE of 3 repeats: 3.108
pH7.5, Phe 50 μM
  fluorescence response of GECFINDER, AVE of 3 repeats: 3.25
pH7.5, Phe 100 μM
  fluorescence response of GECFINDER, AVE of 3 repeats: 3.385
pH8.5, Phe 0.001 μM
  fluorescence response of GECFINDER, AVE of 3 repeats: 5.725e-17
pH8.5, Phe 0.005 μM
  fluorescence response of GECFINDER, AVE of 3 repeats: 0.003084
pH8.5, Phe 0.01 μM
  fluorescence response of GECFINDER, AVE of 3 repeats: 0.009629
pH8.5, Phe 0.05 μM
  fluorescence response of GECFINDER, AVE of 3 repeats: 0.04022
pH8.5, Phe 0.1 μM
  fluorescence response of GECFINDER, AVE of 3 repeats: 0.0788
pH8.5, Phe 0.5 μM
  fluorescence response of GECFINDER, AVE of 3 repeats: 0.5458
pH8.5, Phe 1 μM
  fluorescence response of GECFINDER, AVE of 3 repeats: 0.9288
pH8.5, Phe 5 μM
  fluorescence response of GECFINDER, AVE of 3 repeats: 1.837
pH8.5, Phe 10 μM
  fluorescence response of GECFINDER, AVE of 3 repeats: 2.121
pH8.5, Phe 25 μM
  fluorescence response of GECFINDER, AVE of 3 repeats: 2.449
pH8.5, Phe 50 μM
  fluorescence response of GECFINDER, AVE of 3 repeats: 2.595
pH8.5, Phe 100 μM
  fluorescence response of GECFINDER, AVE of 3 repeats: 2.661
pH6.5
  fluorescence intensity, AVE of 3 repeats: 11375
pH7.5
  fluorescence intensity, AVE of 3 repeats: 18474.7
pH8.5
  fluorescence intensity, AVE of 3 repeats: 19389
